Data: ChEMBL document CHEMBL1201862, “PubChem BioAssay data set” (2004)
Active and inactive are the calls of the source.

Experiments:
[1] = target: T1, Methionyl-tRNA synthetase, putative (Trypanosoma brucei brucei, UniProt Q38C91); type: functional, Trypanosoma brucei brucei strain 927/4 GUTat10.1
[2] = Counterscreen for inhibitors of Trypanosoma brucei methionyl tRNA synthetase (MetRS): Luminescence-based cell-based high throughput dose response assay to identify compounds that are cytotoxic to Jurkat human T lymphocyte cells.; type: functional
[3] = target: T1, Methionyl-tRNA synthetase, putative; type: functional, Trypanosoma brucei brucei strain 927/4 GUTat10.1; remark: listed apart in the source
Vero = assay: viability loss in Vero cells – cell-based, plate reader, cherry-pick samples, cytotoxicity control, dose response (AID 687020); type: functional; details: Chlorocebus sabaeus
[4] = Luminescence-based cell-based high throughput dose response assay to identify activators of the DAF-12 from the parasite S. stercoralis (ssDAF-12).; type: functional
Protein S100-A4 = Protein S100-A4 (Homo sapiens, UniProt P26447); assay: human S100A4 peptide interaction inhibition curves – biochemical, fluorescence polarization, cherry-picked hits, dose response (AID 687001); type: functional
Protein S100-A4, sequence (P26447 whole entry): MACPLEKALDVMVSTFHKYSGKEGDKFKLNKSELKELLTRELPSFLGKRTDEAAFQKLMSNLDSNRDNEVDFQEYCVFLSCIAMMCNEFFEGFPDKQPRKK

Cytochrome P450 1A2 = target: T2, Cytochrome P450 1A2 (Homo sapiens, UniProt P05177);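 note: PubChem cytochrome P450 panel assay, CYP1A2 panel member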
T2 sequence (P05177 whole entry): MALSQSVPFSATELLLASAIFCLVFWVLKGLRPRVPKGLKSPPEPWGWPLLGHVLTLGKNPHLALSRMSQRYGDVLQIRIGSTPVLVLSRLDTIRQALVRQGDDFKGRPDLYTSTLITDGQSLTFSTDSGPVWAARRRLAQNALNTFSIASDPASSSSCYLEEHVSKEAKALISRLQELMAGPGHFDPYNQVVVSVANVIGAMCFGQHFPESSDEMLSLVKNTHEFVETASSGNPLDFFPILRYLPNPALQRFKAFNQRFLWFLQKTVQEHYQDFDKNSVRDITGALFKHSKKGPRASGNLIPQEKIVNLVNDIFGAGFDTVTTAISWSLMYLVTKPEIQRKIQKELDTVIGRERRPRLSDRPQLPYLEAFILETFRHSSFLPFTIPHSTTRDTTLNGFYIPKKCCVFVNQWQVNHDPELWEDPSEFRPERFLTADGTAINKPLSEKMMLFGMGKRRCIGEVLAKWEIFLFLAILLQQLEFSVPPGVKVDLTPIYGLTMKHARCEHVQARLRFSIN

Paired box protein Pax-8 = Paired box protein Pax-8 (Homo sapiens, UniProt Q06710); assay: PAX8 transcriptional activity inhibition in RMG-I – RMG-I cells, luciferase, cherry-pick, dose response (AID 687027); type: functional, cell-based;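 note: luciferase reporter driven by Pax8 target thyroperoxidase promoter measured by SteadyGlo luminescence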
Paired box protein Pax-8, sequence (Q06710 whole entry): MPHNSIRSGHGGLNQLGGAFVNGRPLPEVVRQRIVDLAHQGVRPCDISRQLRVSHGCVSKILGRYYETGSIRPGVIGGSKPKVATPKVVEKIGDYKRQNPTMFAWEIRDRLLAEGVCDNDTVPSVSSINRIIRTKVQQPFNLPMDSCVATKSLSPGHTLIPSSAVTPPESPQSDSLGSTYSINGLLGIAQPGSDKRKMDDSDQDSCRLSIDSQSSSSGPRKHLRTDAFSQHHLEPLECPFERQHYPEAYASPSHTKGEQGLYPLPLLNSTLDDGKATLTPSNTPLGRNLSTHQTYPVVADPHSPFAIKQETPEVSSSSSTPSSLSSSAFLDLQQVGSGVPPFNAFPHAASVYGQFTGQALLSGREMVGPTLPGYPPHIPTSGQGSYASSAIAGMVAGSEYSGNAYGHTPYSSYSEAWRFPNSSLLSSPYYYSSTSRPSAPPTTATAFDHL

cells = type: functional
[5] = target: T3, Sentrin-specific protease 1 (Homo sapiens, UniProt Q9P0U3); assay: Dose response confirmation of small molecule inhibitors of the catalytic domain of the SUMO protease, SENP1 in a FRET assay.; type: functional; details: read-out: IC50_Mean
T3 sequence (Q9P0U3 whole entry, the tested form may be a part): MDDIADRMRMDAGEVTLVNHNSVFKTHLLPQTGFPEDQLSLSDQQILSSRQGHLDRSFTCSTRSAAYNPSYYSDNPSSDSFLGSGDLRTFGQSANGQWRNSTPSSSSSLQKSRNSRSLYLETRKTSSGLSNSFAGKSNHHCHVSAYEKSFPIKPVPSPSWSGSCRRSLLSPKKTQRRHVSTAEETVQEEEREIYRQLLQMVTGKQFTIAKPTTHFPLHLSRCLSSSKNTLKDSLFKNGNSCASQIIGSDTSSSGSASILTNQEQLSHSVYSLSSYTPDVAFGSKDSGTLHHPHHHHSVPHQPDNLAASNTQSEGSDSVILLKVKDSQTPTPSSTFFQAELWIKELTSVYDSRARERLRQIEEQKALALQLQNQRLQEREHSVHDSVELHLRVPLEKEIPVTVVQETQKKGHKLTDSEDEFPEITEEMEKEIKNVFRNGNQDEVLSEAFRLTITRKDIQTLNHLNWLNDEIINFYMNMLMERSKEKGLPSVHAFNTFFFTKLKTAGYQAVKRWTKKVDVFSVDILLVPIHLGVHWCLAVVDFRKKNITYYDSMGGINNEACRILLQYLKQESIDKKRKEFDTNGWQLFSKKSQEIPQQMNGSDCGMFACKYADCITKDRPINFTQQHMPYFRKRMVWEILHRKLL

[6] = target: T3, Sentrin-specific protease 1; assay: SENP1 catalytic domain blockers, concentration series – biochemical, kinetic FRET, dose response (AID 651697); type: functional; details: read-out: IC50_Mean
[7] = THP-1 cell cytotoxicity, dose response, cytotoxicity control for non-replicating M. tuberculosis project (AID 489025); type: functional
Beta-lactamase [8] = target: Beta-lactamase (Salmonella choleraesuis (strain SC-B67), UniProt Q5J463)
Beta-lactamase (Salmonella choleraesuis (strain SC-B67), UniProt Q5J463), sequence (Q5J463 whole entry): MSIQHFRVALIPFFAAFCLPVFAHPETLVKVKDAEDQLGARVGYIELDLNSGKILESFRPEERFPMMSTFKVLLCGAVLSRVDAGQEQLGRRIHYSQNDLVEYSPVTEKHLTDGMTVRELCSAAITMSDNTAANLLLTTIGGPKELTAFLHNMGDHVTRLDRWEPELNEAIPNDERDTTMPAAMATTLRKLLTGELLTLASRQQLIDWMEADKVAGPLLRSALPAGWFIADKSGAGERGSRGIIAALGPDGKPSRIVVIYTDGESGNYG

Beta-lactamase [9] = target: Beta-lactamase (Pseudomonas aeruginosa, UniProt Q79MP6);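 note: biochemical dose-response test of metallo-beta-lactamase enzyme inhibition, read out by epi-absorbance; purified recombinant IMP-1 metallo-beta-lactamase with nitrocefin as substrate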
Beta-lactamase (Pseudomonas aeruginosa, UniProt Q79MP6), sequence (Q79MP6 whole entry): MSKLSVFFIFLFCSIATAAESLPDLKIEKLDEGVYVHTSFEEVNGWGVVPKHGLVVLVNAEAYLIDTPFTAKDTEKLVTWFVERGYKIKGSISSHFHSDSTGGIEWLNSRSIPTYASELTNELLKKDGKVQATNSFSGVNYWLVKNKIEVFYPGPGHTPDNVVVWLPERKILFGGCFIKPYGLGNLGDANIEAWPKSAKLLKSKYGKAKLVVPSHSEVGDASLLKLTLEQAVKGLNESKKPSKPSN

T1 sequence (Q38C91 whole entry): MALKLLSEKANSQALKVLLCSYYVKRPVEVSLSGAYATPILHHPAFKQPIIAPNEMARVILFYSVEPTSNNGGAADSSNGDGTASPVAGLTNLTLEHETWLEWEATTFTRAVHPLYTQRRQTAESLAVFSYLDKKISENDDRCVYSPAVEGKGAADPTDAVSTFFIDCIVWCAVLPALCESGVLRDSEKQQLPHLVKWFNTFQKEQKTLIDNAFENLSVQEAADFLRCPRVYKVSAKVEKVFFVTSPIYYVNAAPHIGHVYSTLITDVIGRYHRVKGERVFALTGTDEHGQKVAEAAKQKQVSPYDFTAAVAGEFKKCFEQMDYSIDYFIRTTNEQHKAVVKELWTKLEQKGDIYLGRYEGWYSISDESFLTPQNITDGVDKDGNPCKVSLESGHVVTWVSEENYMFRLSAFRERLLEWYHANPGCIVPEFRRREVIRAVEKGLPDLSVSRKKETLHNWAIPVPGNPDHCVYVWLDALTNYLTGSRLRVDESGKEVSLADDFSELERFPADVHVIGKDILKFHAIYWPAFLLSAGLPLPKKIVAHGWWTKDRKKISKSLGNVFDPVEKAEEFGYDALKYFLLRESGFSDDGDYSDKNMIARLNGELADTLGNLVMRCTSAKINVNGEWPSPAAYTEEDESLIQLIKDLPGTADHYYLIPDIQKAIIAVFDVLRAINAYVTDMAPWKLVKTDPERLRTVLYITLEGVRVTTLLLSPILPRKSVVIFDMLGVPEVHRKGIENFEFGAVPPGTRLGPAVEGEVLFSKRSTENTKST

Question: For `Cc1cc(C)c(O)c(-c2cc(C(=O)NCCc3ccc(S(N)(=O)=O)cc3)[nH]n2)c1`, which IC50 [1] is on record?
Answer: 39.5 µM (inactive)

Question: What about the IC50 [2] of the same compound?
Answer: 83.3 µM (inactive)

Question: And the IC50 [3]?
Answer: 70.9 µM (inactive)

Question: With `COc1cc(C)ccc1OCc1cc(C(=O)NCCN2CCCC(O)C2)no1` (centres undefined) as the compound, how does the AC50 (Vero) read?
Answer: 30 µM (active)

Question: Which IC50 [4] does the source give for `CC(=O)[C@@]1(O)Cc2c(O)c3c(c(O)c2[C@H](O[C@H]2C[C@H](N)[C@H](O)[C@H](C)O2)C1)C(=O)c1ccccc1C3=O` here?
Answer: > 67.5 µM (inactive)

Question: What about the AC50 (Protein S100-A4) of the same compound?
Answer: 0.412 µM (active)

Question: And the AC50 (Cytochrome P450 1A2)?
Answer: 20 µM (inconclusive)

Question: What about the AC50 (Paired box protein Pax-8) of the same compound?
Answer: 3.77 µM (active)

Question: With `O=C(Nc1nccs1)c1cc2cc(Cl)ccc2oc1=O` as the compound, how does the IC50 (cells) read?
Answer: 1.37 µM (active)

Question: And the IC50 [5]?
Answer: 3.49 µM (active)

Question: What about the IC50 [6] of the same compound?
Answer: 1.84 µM (active)

Question: With `N=C1/C(=C\c2coc3ccccc3c2=O)C(=O)N=C2SC=CN12` as the compound, how does the CC50 [7] read?
Answer: > 40 µM (active)

Question: And the IC50 (Beta-lactamase [8])?
Answer: > 59.6 µM (inactive)

Question: And the IC50 (Beta-lactamase [9])?
Answer: 36.4 µM (inactive)
